Results as given in patent publication US20240415753A1, “DEODORANT COMPOSITIONS COMPRISING CARBOXYLIC ACIDS” (The Procter & Gamble Company, priority 2023, published 2024).

How the values were obtained:
[1] = system: mock community of five underarm species (3 Staphylococcus and 2 Corynebacterium); assay: MIC of various carboxylic acids (Optical Density MIC 95); assay type: cell-based; settings: pH 5, Tryptic Soy Broth, initial concentration 1000 ppm, ~24 hours at 37° C., OD 600 nm
Description: The following MIC (Minimum Inhibitory Concentration) was done on various carboxylic acids. The MIC is the lowest concentration of active compound at which no growth of the microorganism is observed macroscopically. […] Tryptic Soy Broth is used in the measurements below as a standard diluent for testing MIC. Initial concentration is the highest concentration tested in this experiment. […] The results shown in Table 7 below indicate that carboxylic acids have the ability to inhibit bacteria growth. […] The MIC or minimum inhibitory concentration test determines antimicrobial activity of a material against a specific bacteria. The most commonly employed methods are the tube dilution method and agar dilution method. Test products that are not clear or precipitate the growth media are tested by agar dilution method which is similar to the tube dilution method except dilutions are plated on agar. The tube dilution test is the standard method for determining levels of microbial resistance to an antimicrobial agent. Serial dilutions of the test agent are made in a liquid microbial growth medium which is inoculated with a standardized number of organisms and incubated for a prescribed time. The lowest concentration (highest dilution) of test agent preventing appearance of turbidity (growth) is considered to be the minimal/minimum inhibitory concentration (MIC). At this dilution the test agent is bacteriostatic. […] This measurement is referred to as optical density.

[2] = Surface tension of carboxylic acid at 2 wt % in water (Wilhelmy plate); assay type: physicochemical; settings: 2 wt % solution of the carboxylic acid in water; average of 3 samples
Procedure: Surface tension was measured using surface tension measurement, described herein. […] Surface tension of a sample is calculated as the average of the last 5 measured values. […] The average of the last 5 values is used to calculate surface tension of a sample. Surface Tension is measured by ASTM […]-20 Method C-Surface Tension by […] plate. For accurate measurement, the Surface Tension measurement should be allowed to equilibrate over the course of at least 1 minute, or at least 2 minutes, or longer depending on the sample. Properly equilibrated surface tension measurement is evaluated by not seeing a change in the surface tension measurement across multiple data points at the end of the measurement time period. The sample is run for a longer period of time if the surface tension measurement is continuing to change across multiple data points at the end of the measurement time period. […] The average of the last 5 values collected is used to calculate surface tension of a sample.

[3] = Surface tension of solvents at 50 wt % in water (Wilhelmy plate); assay type: physicochemical; settings: solvent at 50 wt % in water; average of 3 samples
Description: In addition, carboxylic acids may be used in deodorant compositions that are desired to be clear. For the composition to appear clear, the refractive index of the polar and nonpolar phases may not vary too much. For example, for a clear appearance of a polar in nonpolar emulsion, a significant amount of material with high refractive index, water soluble solvents or emollients (for example glycols, polyethers, diols, glycerin, or mixtures thereof), can be added to the polar phase to match the refractive index of water (1.333) to silicone (1.40). […] Surface tension is measured for mixtures of solvents at 50 wt % in water. Surface tension was measured using the surface tension measurement, as described in the Test Method section herein. Measurement time period was 1 minute with 30 values measured over the measurement time period. Surface tension of a sample is calculated as the average of the last 5 measured values. Each reported value is an average of 3 samples measured.
Surface Tension is measured by ASTM D1331-20 Method C-Surface Tension by Willhelmy plate. […] Properly equilibrated surface tension measurement is evaluated by not seeing a change in the surface tension measurement across multiple data points at the end of the measurement time period. […] A minimum of 30 measured values are collected during the measurement time period. […]

| Surface Tension when measured at 2 wt % in Water [2] [mN/m] | Surface Tension when measured at 50 wt % in Water [3] [mN/m] | SMILES | MIC [1] [µg/mL] |
| --- | --- | --- | --- |
| 63.7 | – | O=C(O)C(O)c1ccccc1 (centres unmarked) [Mandelic Acid] | 1000 |
| – | – | O=C(O)C(O)C(O)C(=O)O (centres unmarked) [Tartaric Acid] | 250 |
| – | – | O=C(O)c1ccccc1O [Salicylic Acid] | 125 |
| 71.8 | – | O=C(O)CC(O)C(=O)O (centres unmarked) [Malic Acid] | 500 |
| 69.8 | – | O=C(O)CCC(=O)O [Succinic Acid] | 1000 |
| 71.1 | – | O=C(O)CO [Glycolic Acid] | – |
| 72.4 | – | O=C1O[C@H]([C@@H](O)CO)C(O)=C1O [Ascorbic Acid] | – |
| – | – | O=C(O)/C=C/C(=O)O [Fumaric Acid] | 250 |
| – | 44.6 | CC(O)CO (centres unmarked) [Propylene Glycol (PG), Propylene Glycol] | – |
| 63.7 | – | CC(O)C(=O)O (centres unmarked) [Lactic Acid] | 1000 |
| – | 68.6 | OCC(O)CO [Glycerin] | – |
| – | – | O=C(O)/C=C\C(=O)O [Maleic Acid] | 1000 |
| 71.3 | – | O=C(O)CC(O)(CC(=O)O)C(=O)O [Citric Acid] | – |
